The experiment deals with human growth hormone secretagogue receptor (hGHS-R1a) (Homo sapiens, UniProt Q92847). Nature of the experiment: Competitive radioligand binding assay (ghrelin receptor), standard method A. The note with it: binding activity at the human ghrelin receptor, standard method A. The text has this: A competitive binding assay at the human growth hormone secretagogue receptor (hGHS-R1a) can be carried out analogously to assays described in the literature. (Bednarek, M. A.; et al. J. Med. Chem. 2000, 43, 4370-4376; Palucki, B. L.; et al. Bioorg. Med. Chem. Lett. […], 11, 1955-1957.) See also U.S. patent application Ser. Nos. 11/149,512 and 11/149,731. Binding activity at the gherlin receptor for representative compounds of the present invention is shown in the Examples below.
Chain of human growth hormone secretagogue receptor (hGHS-R1a) (Q92847 whole entry): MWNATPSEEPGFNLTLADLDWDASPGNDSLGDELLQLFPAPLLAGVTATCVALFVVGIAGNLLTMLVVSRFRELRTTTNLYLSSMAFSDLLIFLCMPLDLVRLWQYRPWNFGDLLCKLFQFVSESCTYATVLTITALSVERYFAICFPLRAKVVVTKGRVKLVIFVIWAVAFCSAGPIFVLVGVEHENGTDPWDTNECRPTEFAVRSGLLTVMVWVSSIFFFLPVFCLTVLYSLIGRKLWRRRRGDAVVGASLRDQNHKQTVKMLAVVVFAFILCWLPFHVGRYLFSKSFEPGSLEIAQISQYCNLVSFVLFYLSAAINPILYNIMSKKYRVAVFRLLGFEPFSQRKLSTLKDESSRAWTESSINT
As for `CC[C@H](C)[C@@H]1NC[C@@H](C)Oc2cccnc2CCCNC(=O)[C@@H](CC(C)C)NC(=O)[C@@H](C)N(C)C1=O` [Compound 1000], the Ki (in general, the dissociation constant of the complex between target and ligand, obtained from inhibition or displacement) is not above 0.5 µM. For `C[C@@H]1C(=O)N[C@H](Cc2ccc(F)cc2)C(=O)NCCCc2ccccc2OC(C)(C)CN[C@@H](C2CC2)C(=O)N1C` [Compound 1003] the value was not above 0.1 µM. `C[C@H]1CNC(=O)[C@@H](Cc2ccc(F)cc2)NC(=O)[C@@H](C)N(C)C(=O)[C@H](C2CC2)NC[C@@H](C)Oc2ccccc2C1` [Compound 1005]: the Ki is not above 0.1 µM. To `CC(C)C[C@H]1NC(=O)[C@@H](C)N(C)C(=O)[C@H](C2CC2)NC[C@@H](C)Oc2c(Cl)cccc2CCCNC1=O` [Compound 1006] belongs not above 0.5 µM; to `C[C@@H]1CN[C@@H](C2CC2)C(=O)N(C)[C@H](C)C(=O)N[C@H](Cc2ccc(F)cc2)C(=O)NCCCc2cccc(Cl)c2O1` [Compound 1007], not above 0.1 µM.

For `C[C@@H]1CCc2ccccc2O[C@H](C)CN[C@@H](C2CC2)C(=O)N(C)[C@H](C)C(=O)N[C@H](Cc2ccc(F)cc2)C(=O)N1` [Compound 1010], the Ki is not above 0.01 µM.

Take `C[C@@H]1CN[C@@H](C2CC2)C(=O)N(C)[C@H](C)C(=O)N[C@H](C(C)(C)C)C(=O)NCCCc2ccccc2O1` [Compound 1014]: the inhibitory constant (Ki) was not above 0.5 µM. To `CC(C)C[C@H]1NC(=O)[C@@H](C)N(C)C(=O)[C@H](C2CC2)NC[C@@H]2CCc3cccc(c3O2)CCCNC1=O` [Compound 1015] belongs not above 0.5 µM; to `C[C@@H]1C(=O)N[C@H](Cc2ccc(F)cc2)C(=O)NCCCc2cccc3c2O[C@@H](CC3)CN[C@@H](C2CC2)C(=O)N1C` [Compound 1016], not above 0.1 µM; to `CC(C)C[C@H]1NC(=O)[C@@H](C)N(C)C(=O)[C@H](C2CC2)NCCOc2cnccc2CCCNC1=O` [Compound 1021], more than 0.5 µM.

`CC[C@H](C)[C@@H]1NCCOc2cnccc2CCCNC(=O)[C@@H](CC(C)C)NC(=O)[C@@H](C)N(C)C1=O` [Compound 1022] returned a Ki not above 0.5 µM. Molecule `C[C@@H]1CN[C@@H](C2CC2)C(=O)N(C)[C@H](C)C(=O)N[C@H](Cc2ccc(O)cc2)C(=O)NCCCc2ncccc2O1` [Compound 1023] registered an inhibition constant Ki not above 0.1 µM. For `C[C@@H]1C(=O)N[C@H](Cc2ccc(O)cc2)C(=O)NCCCc2cccc3c2O[C@@H](CC3)CN[C@@H](C2CC2)C(=O)N1C` [Compound 1024], the inhibitory constant (Ki) was not above 0.1 µM. For `C[C@@H]1C(=O)N[C@H](Cc2ccc(O)cc2)C(=O)NCCCc2cccc3c2OC(CN[C@@H](C2CC2)C(=O)N1C)C3` (stereo partly drawn) [Compound 1025] the value was not above 0.5 µM; for `CC[C@H](C)[C@@H]1NC[C@@H](C)Oc2cccnc2CCCNC(=O)[C@@H](Cc2ccc(O)cc2)NC(=O)[C@@H](C)N(C)C1=O` [Compound 1026], not above 0.1 µM.

For `C[C@@H]1CN[C@@H](C2CC2)C(=O)N(C)[C@H](C)C(=O)N[C@H](Cc2ccccc2)C(=O)NCCCc2ncccc2O1` [Compound 1028], the Ki is not above 0.1 µM.

In turn, `CC[C@H](C)[C@@H]1NC[C@@H](C)Oc2cccnc2CCCNC(=O)[C@@H](Cc2ccc(F)cc2)NC(=O)[C@@H](C)N(C)C1=O` [Compound 1029] gave an inhibition constant Ki not above 0.01 µM.

The molecule `CC[C@H](C)[C@@H]1NC[C@@H](C)Oc2cccnc2CCCNC(=O)[C@@H](Cc2ccccc2)NC(=O)[C@@H](C)N(C)C1=O` [Compound 1030] gave a Ki not above 0.1 µM.

`C[C@@H]1C(=O)N[C@H](Cc2ccccc2)C(=O)NCCCc2ccncc2OCCN[C@@H](C2CC2)C(=O)N1C` [Compound 1031] displayed an inhibition constant (Ki) not above 0.1 µM. Molecule `CO[C@H](C)[C@@H]1NC[C@@H](C)Oc2cccnc2CCCNC(=O)[C@@H](Cc2ccc(F)cc2)NC(=O)[C@@H](C)N(C)C1=O` [Compound 1032] registered a Ki not above 0.5 µM. For `C[C@@H]1CN[C@@H](C2CC2)C(=O)N(C)[C@H](C)C(=O)N[C@H]([C@@H](C)c2ccc(F)cc2)C(=O)NCCCc2ccccc2O1` [Compound 1034], the inhibition constant (Ki) is not above 0.1 µM.

With `C[C@@H]1CN[C@@H](C2CC2)C(=O)N(C)[C@H](C)C(=O)N[C@H](C(C)(C)c2ccc(F)cc2)C(=O)NCCCc2ccccc2O1` [Compound 1035], the Ki was not above 0.1 µM. For `C[C@@H]1CN[C@@H](C2CC2)C(=O)N(C)[C@H](C)C(=O)N[C@H](CC(=O)O)C(=O)NCCCc2ccccc2O1` [Compound 1036] the value was more than 0.5 µM; for `C[C@@H]1CN[C@@H](C2CC2)C(=O)N(C)[C@H](C)C(=O)N[C@H](Cc2ccc(C(F)(F)F)cc2)C(=O)NCCCc2ccccc2O1` [Compound 1038], not above 0.1 µM.

On to `C[C@@H]1CN[C@@H](C2CC2)C(=O)N(C)[C@H](C)C(=O)N[C@H](Cc2ccc(Cl)cc2Cl)C(=O)NCCCc2ccccc2O1` [Compound 1039], for which the Ki was not above 0.1 µM. In turn, `C[C@@H]1CN[C@@H](C2CC2)C(=O)N(C)[C@H](C)C(=O)N[C@H](Cc2ccc(F)c(F)c2)C(=O)NCCCc2ccccc2O1` [Compound 1040] returned a Ki not above 0.1 µM. `C[C@@H]1CN[C@@H](C2CC2)C(=O)N(C)[C@H](C)C(=O)N[C@H](Cc2cc(F)c(F)c(F)c2)C(=O)NCCCc2ccccc2O1` [Compound 1041] displayed a Ki not above 0.1 µM.

On to `C[C@@H]1CN[C@@H](C2CC2)C(=O)N(C)[C@H](C)C(=O)N[C@H](Cc2c(F)c(F)c(F)c(F)c2F)C(=O)NCCCc2ccccc2O1` [Compound 1042], for which the Ki was not above 0.1 µM. For `CC1CNC(C2CC2)C(=O)N(C)C(C)C(=O)NC(C(C)(C)C)C(=O)NCCCc2cccc(F)c2O1` (stereo not drawn) [Compound 1044] the value was not above 0.5 µM.

Regarding `C[C@@H]1CN[C@@H](C2CC2)C(=O)N(C)[C@H](C)C(=O)N[C@H](CC2CCCCC2)C(=O)NCCCc2ccccc2O1` [Compound 1045], the Ki was not above 0.1 µM.

With `C[C@@H]1CN[C@@H](C2CC2)C(=O)N(C)[C@H](C)C(=O)N[C@H](C2CCCCC2)C(=O)NCCCc2ccccc2O1` [Compound 1046], the Ki is not above 0.1 µM. In turn, `C[C@@H]1CN[C@@H](C2CC2)C(=O)N(C)[C@H](C)C(=O)N[C@H](C2CC2)C(=O)NCCCc2ccccc2O1` [Compound 1048] gave an inhibitory constant (Ki) of more than 0.5 µM. For `C[C@@H]1CN[C@@H](C2CC2)C(=O)N(C)[C@H](C)C(=O)N[C@H]([C@H](C)O)C(=O)NCCCc2ccccc2O1` [Compound 1050] the value was more than 0.5 µM; for `C[C@@H]1CN[C@@H](C2CC2)C(=O)N(C)[C@H](C)C(=O)N[C@H](Cc2cc(Br)c(O)c(Br)c2)C(=O)NCCCc2ccccc2O1` [Compound 1053], not above 0.1 µM. On to `CC(=O)Oc1c(Br)cc(C[C@H]2NC(=O)[C@@H](C)N(C)C(=O)[C@H](C3CC3)NC[C@@H](C)Oc3ccccc3CCCNC2=O)cc1Br` [Compound 1066], for which the Ki was not above 0.1 µM. To `C[C@@H]1CN[C@@H](C2CC2)C(=O)N(C)[C@H](C)C(=O)N[C@H]([C@@H](C)c2ccc(O)cc2)C(=O)NCCCc2ccccc2O1` [Compound 1068] belongs not above 0.1 µM; to `C[C@@H]1CN[C@@H](C2CC2)C(=O)N(C)[C@H](C)C(=O)N[C@H](Cc2ccc(F)cc2)C(=O)NCCC(C)(C)c2ccccc2O1` [Compound 1071], not above 0.5 µM; to `C[C@@H]1C(=O)N[C@H](Cc2ccc(O)cc2)C(=O)NCCCc2nccc3c2O[C@H](CC3)CN[C@@H](C2CC2)C(=O)N1C` [Compound 1074], not above 0.1 µM.

`C[C@@H]1C(=O)N[C@H]([C@@H](C)c2ccc(O)cc2)C(=O)NCCCc2nccc3c2O[C@H](CC3)CN[C@@H](C2CC2)C(=O)N1C` [Compound 1076] gave an inhibitory constant (Ki) not above 0.1 µM.
